Test results published in the CheMixHub ionic liquid set.

Assay: xn = mol fraction of the nth substance listed
Details: 101 kPa, frequency 0.001 MHz

CCCCCCCCCCCCCCn1cc[n+](C)c1.[Br-] + CC[N+](CC)(CC)CC.[Br-] + O
electrical conductivity [S/m]
Details | 298.15 K | 308.15 K | 318.15 K
x1 = 4.74e-06, x2 = 0 | 0.00249 | 0.00401 | 0.00409
x1 = 4.74e-06, x2 = 1.802e-05 | 0.0133 | 0.0165 | 0.0198
x1 = 4.74e-06, x2 = 3.604e-05 | 0.0213 | 0.0264 | 0.0318
x1 = 4.74e-06, x2 = 9.009e-05 | 0.0427 | 0.053 | 0.063
x1 = 9.35e-06, x2 = 0 | 0.00459 | 0.00671 | 0.00708
x1 = 9.35e-06, x2 = 1.802e-05 | 0.0152 | 0.0187 | 0.0223
x1 = 9.36e-06, x2 = 3.604e-05 | 0.023 | 0.0283 | 0.0345
x1 = 9.36e-06, x2 = 9.009e-05 | 0.0444 | 0.0542 | 0.0648
x1 = 1.386e-05, x2 = 0 | 0.0065 | 0.0093 | 0.0101
x1 = 1.386e-05, x2 = 1.802e-05 | 0.017 | 0.0209 | 0.025
x1 = 1.386e-05, x2 = 3.604e-05 | 0.0249 | 0.0306 | 0.0365
x1 = 1.387e-05, x2 = 9.009e-05 | 0.0459 | 0.056 | 0.0665
x1 = 1.825e-05, x2 = 0 | 0.00834 | 0.011 | 0.0127
x1 = 1.826e-05, x2 = 1.802e-05 | 0.0185 | 0.0231 | 0.0271
x1 = 1.826e-05, x2 = 3.604e-05 | 0.0264 | 0.0325 | 0.0389
x1 = 1.827e-05, x2 = 9.009e-05 | 0.0472 | 0.058 | 0.0681
x1 = 2.252e-05, x2 = 0 | 0.0101 | 0.0135 | 0.0154
x1 = 2.253e-05, x2 = 1.802e-05 | 0.0201 | 0.0251 | 0.0294
x1 = 2.253e-05, x2 = 3.604e-05 | 0.0281 | 0.0343 | 0.0416
x1 = 2.255e-05, x2 = 9.009e-05 | 0.0479 | 0.0594 | 0.0705
x1 = 2.669e-05, x2 = 0 | 0.0119 | 0.0154 | 0.0182
x1 = 2.669e-05, x2 = 1.802e-05 | 0.0216 | 0.0268 | 0.0318
x1 = 2.67e-05, x2 = 3.604e-05 | 0.0295 | 0.0364 | 0.0432
x1 = 2.671e-05, x2 = 9.009e-05 | 0.049 | 0.0611 | 0.0723
x1 = 3.076e-05, x2 = 0 | 0.0136 | 0.0173 | 0.0206
x1 = 3.077e-05, x2 = 1.802e-05 | 0.0232 | 0.0286 | 0.0341
x1 = 3.077e-05, x2 = 3.604e-05 | 0.0307 | 0.0381 | 0.0451
x1 = 3.079e-05, x2 = 9.009e-05 | 0.0493 | 0.0618 | 0.0738
x1 = 3.474e-05, x2 = 0 | 0.0152 | 0.0199 | 0.0232
x1 = 3.475e-05, x2 = 1.802e-05 | 0.0248 | 0.0305 | 0.0362
x1 = 3.475e-05, x2 = 3.604e-05 | 0.0315 | 0.0399 | 0.0472
x1 = 3.477e-05, x2 = 9.009e-05 | 0.0495 | 0.0619 | 0.0748
x1 = 3.862e-05, x2 = 0 | 0.0167 | 0.0218 | 0.0253
x1 = 3.862e-05, x2 = 1.802e-05 | 0.0261 | 0.0324 | 0.0384
x1 = 3.863e-05, x2 = 3.604e-05 | 0.0318 | 0.0405 | 0.0492
x1 = 3.865e-05, x2 = 9.009e-05 | 0.0494 | 0.0621 | 0.0752
x1 = 4.24e-05, x2 = 0 | 0.0183 | 0.0238 | 0.028
x1 = 4.241e-05, x2 = 1.802e-05 | 0.0265 | 0.0333 | 0.0404
x1 = 4.242e-05, x2 = 3.604e-05 | 0.0322 | 0.0409 | 0.0511
x1 = 4.244e-05, x2 = 9.009e-05 | 0.0497 | 0.0622 | 0.0753
x1 = 4.613e-05, x2 = 0 | 0.0192 | 0.0252 | 0.0303
x1 = 4.614e-05, x2 = 1.802e-05 | 0.0271 | 0.034 | 0.042
x1 = 4.615e-05, x2 = 3.604e-05 | 0.0326 | 0.0414 | 0.0518
x1 = 4.617e-05, x2 = 9.009e-05 | 0.0499 | 0.0623 | 0.0756
x1 = 4.973e-05, x2 = 0 | 0.0199 | 0.0265 | 0.0322
x1 = 4.974e-05, x2 = 1.802e-05 | 0.0274 | 0.0345 | 0.0432
x1 = 4.975e-05, x2 = 3.604e-05 | 0.0329 | 0.0419 | 0.0525
x1 = 4.978e-05, x2 = 9.009e-05 | 0.05 | 0.0627 | 0.0758
x1 = 5.334e-05, x2 = 0 | 0.0204 | 0.0273 | 0.0335
x1 = 5.335e-05, x2 = 1.802e-05 | 0.0278 | 0.035 | 0.0441
x1 = 5.336e-05, x2 = 3.604e-05 | 0.0333 | 0.0423 | 0.0531
x1 = 5.339e-05, x2 = 9.009e-05 | 0.0501 | 0.063 | 0.0761
x1 = 5.676e-05, x2 = 0 | 0.0209 | 0.0282 | 0.0345
x1 = 5.677e-05, x2 = 1.802e-05 | 0.0283 | 0.0354 | 0.0449
x1 = 5.678e-05, x2 = 3.604e-05 | 0.0336 | 0.0428 | 0.0534
x1 = 5.681e-05, x2 = 9.009e-05 | 0.0503 | 0.063 | 0.0763
x1 = 6e-05, x2 = 0 | 0.0213 | 0.0288 | 0.0356
x1 = 6.001e-05, x2 = 1.802e-05 | 0.0286 | 0.0359 | 0.0455
x1 = 6.003e-05, x2 = 3.604e-05 | 0.0338 | 0.0432 | 0.0541
x1 = 6.006e-05, x2 = 9.009e-05 | 0.0505 | 0.0633 | 0.0768
x1 = 6.343e-05, x2 = 0 | 0.0217 | 0.0294 | 0.0365
x1 = 6.344e-05, x2 = 1.802e-05 | 0.0289 | 0.0364 | 0.0461
x1 = 6.345e-05, x2 = 3.604e-05 | 0.0341 | 0.0435 | 0.0542
x1 = 6.349e-05, x2 = 9.009e-05 | 0.0507 | 0.0636 | 0.0773
x1 = 6.667e-05, x2 = 0 | 0.0221 | 0.03 | 0.0372
x1 = 6.668e-05, x2 = 1.802e-05 | 0.0293 | 0.0368 | 0.0467
x1 = 6.67e-05, x2 = 3.604e-05 | 0.0344 | 0.0439 | 0.0548
x1 = 6.673e-05, x2 = 9.009e-05 | 0.0508 | 0.0637 | 0.0777
x1 = 6.973e-05, x2 = 0 | 0.0225 | 0.0305 | 0.0377
x1 = 6.975e-05, x2 = 1.802e-05 | 0.0296 | 0.0373 | 0.0473
x1 = 6.976e-05, x2 = 3.604e-05 | 0.0346 | 0.0442 | 0.0552
x1 = 6.98e-05, x2 = 9.009e-05 | 0.0511 | 0.0641 | 0.0781
x1 = 7.28e-05, x2 = 0 | 0.0229 | 0.0311 | 0.0383
x1 = 7.281e-05, x2 = 1.802e-05 | 0.0299 | 0.0375 | 0.0478
x1 = 7.282e-05, x2 = 3.604e-05 | 0.0349 | 0.0445 | 0.0555
x1 = 7.287e-05, x2 = 9.009e-05 | 0.0512 | 0.0646 | 0.0785
x1 = 7.586e-05, x2 = 0 | 0.0233 | 0.0316 | 0.0389
x1 = 7.587e-05, x2 = 1.802e-05 | 0.0302 | 0.0382 | 0.0482
x1 = 7.589e-05, x2 = 3.604e-05 | 0.0351 | 0.0453 | 0.0561
x1 = 7.593e-05, x2 = 9.009e-05 | 0.0516 | 0.065 | 0.0786
x1 = 7.892e-05, x2 = 0 | 0.0236 | 0.0321 | 0.0396
x1 = 7.894e-05, x2 = 1.802e-05 | 0.0304 | 0.0389 | 0.0485
x1 = 7.895e-05, x2 = 3.604e-05 | 0.0353 | 0.0455 | 0.0568
x1 = 7.9e-05, x2 = 9.008e-05 | 0.0519 | 0.0654 | 0.0789
x1 = 8.18e-05, x2 = 0 | 0.024 | 0.0326 | 0.0408
x1 = 8.182e-05, x2 = 1.802e-05 | 0.0307 | 0.0391 | 0.0492
x1 = 8.184e-05, x2 = 3.604e-05 | 0.0356 | 0.0458 | 0.0571
x1 = 8.188e-05, x2 = 9.008e-05 | 0.0522 | 0.0658 | 0.0792
x1 = 8.451e-05, x2 = 0 | 0.0243 | 0.0329 | 0.0414
x1 = 8.452e-05, x2 = 1.802e-05 | 0.0308 | 0.0395 | 0.0496
x1 = 8.454e-05, x2 = 3.604e-05 | 0.0358 | 0.0462 | 0.0573
x1 = 8.459e-05, x2 = 9.008e-05 | 0.0524 | 0.066 | 0.0796
x1 = 8.739e-05, x2 = 0 | 0.0246 | 0.0333 | 0.0418
x1 = 8.741e-05, x2 = 1.802e-05 | 0.0312 | 0.0399 | 0.0502
x1 = 8.742e-05, x2 = 3.604e-05 | 0.036 | 0.0464 | 0.058
x1 = 8.747e-05, x2 = 9.008e-05 | 0.0526 | 0.0665 | 0.0801
